Data on one molecule can be found in patent publication US20260216109A1, “TREATMENT OF SKIN DISORDERS WITH SHORT CHAIN FATTY ACIDS” (Temple University-Of The Commonwealth System of Higher …, priority 2023, published 2026).

One experiment relates to TNF-α. The experiment is described as follows: Multiplex (MSD V-PLEX) cytokine release, InflammaSkin: TNF-α. The format is cell-based, human. The method, then:
(§1) A total of 16 biopsies of 15 mm diameter were produced from a single donor. Two NativeSkin® models with 12/15 mm silicon rings were produced from the biopsies according to standard procedures in place, and cultured under cell culture conditions (37° C., 5% CO2, max. humidity) for 7 days with 2 mL of standard NativeSkin® medium renewed every day. Fourteen PSO-InflammaSkin® models with 12/15 mm silicon rings were produced by inducing in situ activation and Th17/Th1 polarization of skin resident T cells with a proprietary cocktail, and cultured under cell culture conditions (37° C., 5% CO2, max. humidity) for 7 days with 2 mL of PSO-InflammaSkin® culture medium renewed every day.
(§2) From Day 1 to Day 6, models were systemically treated with 1 μM Otezla or Short Chain Fatty Acids (SCFAs), or topically treated with positive control 0.05% Betamethasone
In these experiments, the SCFAs administered were 45 μg/mL of Ca-propionate and 1 mM mixture of salts (Ca-butyrate and Mg-butyrate).
At Day 7, supernatants were collected and stored at −80° C. and skin models of all conditions were carefully unmolded. Skin biopsies were re-punched to eliminate the area under the silicon ring, fixed in 10% buffered formalin and processed for paraffin wax embedding.
Human pro-inflammatory cytokines released in the supernatant were quantified using the V-PLEX Human IL-17A Kit (MesoScale Discovery, reference: K151RFD-1) and V-PLEX Human TNFα Kit (MesoScale Discovery, reference: K151QWD-1). Values are expressed in pg/mL. For each condition, single values, mean and SEM were plotted using GraphPad Prism. Statistical analysis was performed using a One Way ANOVA test.
PSO-InflammaSkin® models were cultured and treated as described in Example 1. In these experiments, the SCFAs administered were 45 μg/mL of Ca-propionate and 1 mM mixture of salts (Ca-butyrate and Mg-butyrate).
Human pro-inflammatory cytokines released in the supernatant were quantified using the V-PLEX Human IL-17A Kit (MesoScale Discovery, reference: K151RFD-1) and V-PLEX Human custom Pro-inflammatory. Plate 1 comprised Proinflammatory Panel 1 (human) kit reference K15049 (panel IFN-γ and TNF-α). Plate 2 comprised TH17 Panel 1 (human) kit reference K15049 (panel IL-17A Gen B, IL-21, IL-22, IL-23, IL-27, IL-31, MIP-3α).
Samples were diluted four times for plate 2 and two times for plate 1. Samples and standards were assessed in duplicate. Plates were read on MesoScale Discovery Quickpleax SQ 120 plate reader and values expressed in pg/mL.
A statistical analysis was performed. Each condition was compared to the untreated InflammaSkin® condition. First, the distribution's normality of the two compared group was assessed. […] If the two distributions were normal, the homogeneity of variances was assessed using a Fisher test on the variances. […]

The subject of another experiment is InflammaSkin® models. Put plainly: Hematoxylin & Eosin (H&E) staining of InflammaSkin models (skin structure, integrity, viability). It is filed as cell-based, human. The following applies: Example 1; Day 7; Day 1-6: 1 μM Otezla or SCFA (45 μg/mL Ca-propionate + 1 mM Ca-/Mg-butyrate) systemic, 0.05% Betamethasone topical; vs untreated InflammaSkin. The method, then: as §1, §2
In these experiments, the SCFAs administered were 45 μg/mL of Ca-propionate and 1 mM mixture of salts (Ca-butyrate and Mg-butyrate). […]
Skin structure and integrity and viability were evaluated using Hematoxylin & Eosin (H&E) staining following treatment with Betamethasone, […] Otezla® (Apremilast), or SCFAs comprising butyric acid and propionic acid. […] Therefore, the donor sample was determined to remain viable over the course of the culture in the absence of inflammation/T-cell activation.

The test system of experiment [1] is imiquimod (IMQ)-induced psoriasis model mice. The experiment is described as follows: Ear skin thickness, IMQ-induced psoriasis model in mice. The format is in vivo, mouse. The method, then: Topical application of IMQ, a TLR7/8 ligand and potent immune activator induced and exacerbated psoriasis in mice. The mouse IMQ-induced psoriasis (IMQ Ps) model was initiated by a repeated topical application of Aldara© cream (containing 5% IMQ) over 6 consecutive days. Female Balb/c mice (9 weeks of age at reception, ordered with 20 g, Charles River, Sulzfeld, Germany; n=10 mice/group, exception healthy controls n=4) received daily a topical application of 62.5 mg of commercially available IMQ cream (5% Aldara©) on the beforehand (day −1) shaved (~2 cm×3 cm), depilated (Pilka© cream) back skin, and 7 mg on the outer right ear skin for 6 consecutive days, translating in a daily dose of approximately 3.5 mg IMQ. Healthy control mice were included in the study and were treated with vehicle cream (Vaseline; Bombastus-Werke AG) only instead of IMQ. Additionally, an IMQ disease control group was also included.
Before starting treatment on the day of disease induction (day 0), mice were randomized based on body weight to the respective group. […]
The added-up score (erythema plus scaling plus thickening), named disease severity score (scale 0-9), served then as marker for the severity of back skin inflammation. In addition, ear thickness of the right ear was determined daily by using an automatized caliper (Bayer AG, Germany).
Disease Severity Score was evaluated on a daily base starting with the induction of psoriasis by IMQ application (day 0) until the end (day 6) of the study. The extent of ear thickness of the IMQ-treated right ear was determined daily by using an automatized caliper (Bayer AG, Germany) as described in Example 4.
Ear thickening, one of the disease severity score parameters, was evaluated in IMQ-treated mice (FIG. 60 and FIG. 61). The extent of ear thickness of the IMQ-treated right ear was determined daily by using an automatized caliper (Bayer AG, Germany) as described in Example 4.

On to `CCOc1cc([C@@H](CS(C)(=O)=O)N2C(=O)c3cccc(NC(C)=O)c3C2=O)ccc1OC` [Otezla, Apremilast], for which the “increase of the release of TNF-α” value in the experiment with TNF-α (Example 1, Day 7 supernatant, 1 μM Otezla systemic, vs untreated InflammaSkin) was ~2 fold. Also, in the experiment with TNF-α (Example 2, Day 7 supernatant, 1 μM Otezla or SCFA systemic, 0.05% Betamethasone topical, vs untreated InflammaSkin), the TNFα secretion entry is “significantly increased”. For the same molecule, the “TNFα level (by MSD)” value with TNF-α (Example 2, Otezla-treated InflammaSkin (untreated about 1 μg/mL)) was “about 2 μg/mL”. Also, the “H&E: incidence of pyknosis, vacuolization and epidermal/dermal separation” value in the experiment on InflammaSkin® models was “reduce the incidence of pyknosis, vacuolization and epidermal/dermal separation”. Also, the ear thickness result in experiment [1] (Example 7, Apremilast low dose (2.5 mg/kg BID), oral, alone) is on record as “did not show any inhibitory influence on ear thickness”; in experiment [1] (Example 7, Apremilast mid and high dose (5 and 7 mg/kg BID), oral, alone) it was “inhibited”; in experiment [1] (Example 12, day 6, Apremilast monotherapy, both doses (12 mg/kg and 25 mg/kg BID)), “did not show any inhibitory influence on ear thickness at day 6”.
